Test system: patients with PAH or CTEPH
Experiment: E-2.4 inhaled single doses in patients with PAH or CTEPH: PVR, mPAP (right heart catheterization), safety
Assay type: in vivo, human
Method: E-2.4 Inhaled Administration of Single Doses to Patients with PAH or CTEPH to Investigate the Reduction of Pulmonary Vascular Resistance (PVR)
Patients with PAH or CTEPH aged 18 to 80 years were treated in a clinical phase 1b study with orally inhaled single doses* of 240 μg (2 capsules of 120 μg), 480 μg (1 capsule of 480 μg), 1000 μg (1 capsule of 1000 μg), 2000 μg (2 capsules of 1000 μg) or 4000 μg (4 capsules of 1000 μg) of a dry powder formulation comprising example 4 (see C-1, e.g. tables 17 and 20) inserted into a handheld inhalation device, inhaled by deep inhalative breath into the deep parts of the lung (*single dose means the administration of one dosage form/capsule as well as administration of two or more dosage forms/capsules simultaneously or consecutively within a short time period). The included patients had no background treatment with standard of care (SoC) medication for PAH or CTEPH (such as endothelin antagonists, prostanoids, phosphodiesterase type 5 inhibitor or soluble guanylate cyclase stimulators). Patients in this study underwent invasive right heart catheterization as medically indicated routine diagnostic. Primary objective of the study was to investigate the peak percent reduction from baseline in PVR. Patients had to have a baseline pulmonary artery pressure (mPAP) of ≥25 mmHg and a PVR of ≥400 dyn·sec·cm^−5 (5 Wood Units) and were not to show vaso-responsiveness to initial iNO inhalation testing to be included in the per protocol analysis. Plasma concentrations (pharmacokinetics) of the administered drug at several time points after administration were measured and safety and tolerability was assessed.
The study is divided into two parts, Part A and Part B. In Part A escalating aforementioned single doses were administered to patients without background treatment with standard of care (SoC) medication for PAH or CTEPH (such as endothelin antagonists, prostanoids, phosphodiesterase type 5 inhibitor or soluble guanylate cyclase stimulators). In Part B, after finalization of Part A, a selected dose from PartA will be tested in further patients without background SoC treatment (group 1) and additionally in patients on monotherapy with SoC (group 2) and on dual combination therapy with SoC (group 3).
The PVR is a derived parameter from parameters directly measured during the right heart catheterization procedure. The direct parameters included in the calculation are: mean pulmonary arterial pressure [mmHg](mPAP), pulmonary capillary wedge pressure [mmHg] (PCWP), and cardiac output [1/min] (CO). The PVR is calculated according to the formula: PVR [dyn*sec*cm^−5]=80*(mPAP˜PCWP)/CO.

## O=C(O)c1ccc(CCN(CCc2ccccc2OCc2ccc(-c3ccc(C(F)(F)F)cc3)cc2Cl)[C@H]2CCCc3nc(C(=O)O)ccc32)cc1 [example 4, (5S)—{[2-(4-Carboxyphenyl)ethyl][2-(2-{[3-chloro-4′-(trifluoromethyl)biphenyl-4-yl]methoxy}phenyl)-ethyl]amino}-5,6,7,8-tetrahydroquinoline-2-carboxylic acid as Monohydrate I]
At any dose
  changes of systemic blood pressure, heart rate and oxygen saturation: did not represent a safety concern
Including the highest dose of 4000 μg
  tolerability: good tolerability
Patients with PAH or CTEPH
  systemic cGMP: Increase
Until end of the measurement period
  duration of sustained effect with no decrease in response: ≥ 3 h

— patent publication US12202805B2, “Process for preparing (5S)-{[2-(4-carboxyphenyl)ethyl] |2-(2-{|3-chloro-4'-(trifluoromethyl)biphenyl-4-yl]methoxy}phenyl)ethyl]aminol-5,6,7,8-tetrahydroquinoline-2-carboxylic acid and its crystalline forms for use as pharmaceutically active compound” (Bayer Aktiengesellschaft, priority 2021, dated 2025)
